According to PubChem BioAssay AID1845211 (Molecular Pharmacology Branch, DTP, NCI, 2023):
Where “and” joins values, the source holds several entries; their conditions need not be identical. Equal values may be shown once.

Test system: NCI-H322M multicellular tumor spheroids, viability (% test/control)
Experiment: Anticancer human tumor NCI-H322M cell line growth inhibition;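 as to viability, T/C: spheroids exposed to compound for seven days before readout; 100% = DMSO vehicle control wells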
Settings: for viability, T/C: stronger effect = lower value; active = viability on the fitted dose curve at most 10% of control; inactive = the rest
Procedure, shortened: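 Complex spheroids of malignant cells with endothelial cells and mesenchymal stem cells; agents alone or combined, from near clinical Cmax (or 10 microM if unknown) down in half-log steps, 0.25% DMSO final.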

[1] = curve of first compound, second compound 0.003 µM
[2] = second compound 0.003 µM, first compound 0.0316 µM
[3] = second compound 0.003 µM, first compound 0.1 µM
[4] = second compound 0.003 µM, first compound 0.316 µM
[5] = second compound 0.003 µM, first compound 1 µM
[6] = second compound 0.003 µM, first compound 3.16 µM
[7] = second compound 0.003 µM, first compound 10 µM
[8] = curve of first compound, second compound 30 pM
[9] = curve of first compound, second compound 94.9 pM
[10] = curve of first compound, second compound 0.0003 µM
[11] = curve of first compound, second compound 0.000949 µM
[12] = second compound 30 pM, first compound 0.0316 µM
[13] = second compound 30 pM, first compound 0.1 µM
[14] = second compound 30 pM, first compound 0.316 µM
[15] = second compound 30 pM, first compound 1 µM
[16] = second compound 30 pM, first compound 3.16 µM
[17] = second compound 30 pM, first compound 10 µM
[18] = second compound 94.9 pM, first compound 0.0316 µM
[19] = second compound 94.9 pM, first compound 0.1 µM
[20] = second compound 94.9 pM, first compound 0.316 µM
[21] = second compound 94.9 pM, first compound 1 µM
[22] = second compound 94.9 pM, first compound 3.16 µM
[23] = second compound 94.9 pM, first compound 10 µM
[24] = second compound 0.0003 µM, first compound 0.0316 µM
[25] = second compound 0.0003 µM, first compound 0.1 µM
[26] = second compound 0.0003 µM, first compound 0.316 µM
[27] = second compound 0.0003 µM, first compound 1 µM
[28] = second compound 0.0003 µM, first compound 3.16 µM
[29] = second compound 0.0003 µM, first compound 10 µM
[30] = second compound 0.000949 µM, first compound 0.0316 µM
[31] = second compound 0.000949 µM, first compound 0.1 µM
[32] = second compound 0.000949 µM, first compound 0.316 µM
[33] = second compound 0.000949 µM, first compound 1 µM
[34] = second compound 0.000949 µM, first compound 3.16 µM
[35] = second compound 0.000949 µM, first compound 10 µM

CC1COCCN1c1cc(-c2ccnn2C)c2ccnc(-c3ccn[nH]3)c2n1 (configuration not stated) + CC[C@@]1(O)C(=O)OCc2c1cc1n(c2=O)Cc2cc3c(CN(C)C)c(O)ccc3nc2-1
< 0.0316 µM: IC50 [1] | IC50 (curve of first compound, second compound 0.00949 µM) | IC50 (curve of first compound, second compound 0.03 µM) | IC50 (curve of first compound, second compound 0.0949 µM) | IC50 (curve of first compound, second compound 0.3 µM)
inactive: viability, T/C [2] 55.8% | viability, T/C [3] 40.6% | viability, T/C [4] 35% | viability, T/C [5] 32.3% | viability, T/C [6] 30.8% | viability, T/C [7] 38.3% | viability, T/C (second compound 0.00949 µM, first compound 0.0316 µM) 51.6% | viability, T/C (second compound 0.00949 µM, first compound 0.1 µM) 39.1% | viability, T/C (second compound 0.00949 µM, first compound 0.316 µM) 35.5% | viability, T/C (second compound 0.00949 µM, first compound 1 µM) 32.6% | viability, T/C (second compound 0.00949 µM, first compound 3.16 µM) 32.9% | viability, T/C (second compound 0.00949 µM, first compound 10 µM) 34.5% | viability, T/C (second compound 0.03 µM, first compound 0.0316 µM) 43.8% | viability, T/C (second compound 0.03 µM, first compound 0.1 µM) 32.6% | viability, T/C (second compound 0.03 µM, first compound 0.316 µM) 30.8% | viability, T/C (second compound 0.03 µM, first compound 1 µM) 30.4% | viability, T/C (second compound 0.03 µM, first compound 3.16 µM) 32.1% | viability, T/C (second compound 0.03 µM, first compound 10 µM) 35.9% | viability, T/C (second compound 0.0949 µM, first compound 0.0316 µM) 33.6% | viability, T/C (second compound 0.0949 µM, first compound 0.1 µM) 28.1% | viability, T/C (second compound 0.0949 µM, first compound 0.316 µM) 26.6% | viability, T/C (second compound 0.0949 µM, first compound 1 µM) 26.9% | viability, T/C (second compound 0.0949 µM, first compound 3.16 µM) 28.1% | viability, T/C (second compound 0.0949 µM, first compound 10 µM) 29.9% | viability, T/C (second compound 0.3 µM, first compound 0.0316 µM) 23.1% | viability, T/C (second compound 0.3 µM, first compound 0.1 µM) 18.9% | viability, T/C (second compound 0.3 µM, first compound 0.316 µM) 19.8% | viability, T/C (second compound 0.3 µM, first compound 1 µM) 23.6% | viability, T/C (second compound 0.3 µM, first compound 3.16 µM) 20.1% | viability, T/C (second compound 0.3 µM, first compound 10 µM) 27.7%

COc1cc(C)[nH]c(=O)c1CN1CCc2c(Cl)cc(C(OC)C3COC3)c(Cl)c2C1=O (configuration not stated) + COc1cc2c(cc1O)CCNC21CSC2c3c(OC(C)=O)c(C)c4c(c3C(COC1=O)N1C(O)C3Cc5cc(C)c(OC)c(O)c5C(C21)N3C)OCO4
inactive: viability, T/C [12] 75.3% | viability, T/C [13] 82.3% | viability, T/C [14] 80.6% | viability, T/C [15] 84% | viability, T/C [16] 84.4% | viability, T/C [17] 91.7% | viability, T/C [18] 92.6% | viability, T/C [19] 77.5% | viability, T/C [20] 83.3% | viability, T/C [21] 81% | viability, T/C [22] 81.4% | viability, T/C [23] 84.1% | viability, T/C [24] 78.7% | viability, T/C [25] 94.2% | viability, T/C [26] 79% | viability, T/C [27] 83.4% | viability, T/C [28] 97.6% | viability, T/C [29] 87.2% | viability, T/C [30] 81.8% | viability, T/C [31] 82.2% | viability, T/C [32] 82.8% | viability, T/C [33] 78.8% | viability, T/C [34] 74.7% | viability, T/C [35] 79.5%
active: viability, T/C [2] 6.18% | viability, T/C [3] 10.3% | viability, T/C [4] 6.44% | viability, T/C [5] 7.13% | viability, T/C [6] 4.79% | viability, T/C [7] 5.29%
> 10 µM: IC50 [8] | IC50 [9] | IC50 [10] | IC50 [11]
< 0.0316 µM: IC50 [1]

[2H]c1nc(C)nc([2H])c1-c1cc(NC[C@@H](C)c2cccc3c(C(=O)NC)ccnc23)ncn1 + Cn1nnc2c(C(N)=O)ncn2c1=O
inactive: viability, T/C (second compound 1 µM, first compound 0.0316 µM) 103% | viability, T/C (second compound 1 µM, first compound 0.1 µM) 101% | viability, T/C (second compound 1 µM, first compound 0.316 µM) 93% | viability, T/C (second compound 1 µM, first compound 1 µM) 116% | viability, T/C (second compound 1 µM, first compound 3.16 µM) 88.2% | viability, T/C (second compound 1 µM, first compound 10 µM) 84.4% | viability, T/C (second compound 3.16 µM, first compound 0.0316 µM) 105% | viability, T/C (second compound 3.16 µM, first compound 0.1 µM) 92.1% | viability, T/C (second compound 3.16 µM, first compound 0.316 µM) 94% | viability, T/C (second compound 3.16 µM, first compound 1 µM) 97.5% | viability, T/C (second compound 3.16 µM, first compound 3.16 µM) 100% | viability, T/C (second compound 3.16 µM, first compound 10 µM) 99.3% | viability, T/C (second compound 10 µM, first compound 0.0316 µM) 85.5% | viability, T/C (second compound 10 µM, first compound 0.1 µM) 80.7% | viability, T/C (second compound 10 µM, first compound 0.316 µM) 77.9% | viability, T/C (second compound 10 µM, first compound 1 µM) 99.2% | viability, T/C (second compound 10 µM, first compound 3.16 µM) 107% | viability, T/C (second compound 10 µM, first compound 10 µM) 116% | viability, T/C (second compound 31.6 µM, first compound 0.0316 µM) 81.8% | viability, T/C (second compound 31.6 µM, first compound 0.1 µM) 89.3% | viability, T/C (second compound 31.6 µM, first compound 0.316 µM) 89.9% | viability, T/C (second compound 31.6 µM, first compound 1 µM) 91.9% | viability, T/C (second compound 31.6 µM, first compound 3.16 µM) 102% | viability, T/C (second compound 31.6 µM, first compound 10 µM) 99.5% | viability, T/C (second compound 100 µM, first compound 0.0316 µM) 96.8% | viability, T/C (second compound 100 µM, first compound 0.1 µM) 88.9% | viability, T/C (second compound 100 µM, first compound 0.316 µM) 100% | viability, T/C (second compound 100 µM, first compound 1 µM) 92.5% | viability, T/C (second compound 100 µM, first compound 3.16 µM) 91.8% | viability, T/C (second compound 100 µM, first compound 10 µM) 95.3%
> 10 µM: IC50 (curve of first compound, second compound 1 µM) | IC50 (curve of first compound, second compound 3.16 µM) | IC50 (curve of first compound, second compound 10 µM) | IC50 (curve of first compound, second compound 31.6 µM) | IC50 (curve of first compound, second compound 100 µM)

[2H]c1nc(C)nc([2H])c1-c1cc(NC[C@@H](C)c2cccc3c(C(=O)NC)ccnc23)ncn1 + COc1cc2c(cc1O)CCNC21CSC2c3c(OC(C)=O)c(C)c4c(c3C(COC1=O)N1C(O)C3Cc5cc(C)c(OC)c(O)c5C(C21)N3C)OCO4
< 0.0316 µM: IC50 [1]
> 10 µM: IC50 [8] | IC50 [9] | IC50 [10] | IC50 [11]
active: viability, T/C [5] 10.9% | viability, T/C [6] 8.62% | viability, T/C [7] 5.55%
inactive: viability, T/C [12] 80.4% | viability, T/C [13] 89.1% | viability, T/C [14] 85.6% | viability, T/C [15] 84.7% | viability, T/C [16] 75.2% | viability, T/C [17] 90.2% | viability, T/C [18] 81.3% | viability, T/C [19] 76.7% | viability, T/C [20] 92.1% | viability, T/C [21] 90.1% | viability, T/C [22] 85.7% | viability, T/C [23] 94.9% | viability, T/C [24] 89% | viability, T/C [25] 78.9% | viability, T/C [26] 90.5% | viability, T/C [27] 84.2% | viability, T/C [28] 94.9% | viability, T/C [29] 93.3% | viability, T/C [30] 81% | viability, T/C [31] 79.3% | viability, T/C [32] 84% | viability, T/C [33] 82% | viability, T/C [34] 76% | viability, T/C [35] 75.8% | viability, T/C [2] 15.8% | viability, T/C [3] 12.2% | viability, T/C [4] 10.5%

CC1COCCN1c1cc(-c2ccnn2C)c2ccnc(-c3ccn[nH]3)c2n1 (configuration not stated)
inactive: viability, T/C (compound 0.0316 µM) 53.9% and 67.8% and 58.9% | viability, T/C (compound 0.1 µM) 40.6% and 54% and 49.9% | viability, T/C (compound 0.316 µM) 29.4% and 41.8% and 36% | viability, T/C (compound 1 µM) 29.7% and 35.6% and 33.4% | viability, T/C (compound 3.16 µM) 29.8% and 38.9% and 33.5% | viability, T/C (compound 10 µM) 32.7% and 44.9% and 37.6%
0.0431 µM and 0.144 µM and 0.0714 µM: IC50 (curve of compound)
